According to the supplement of paper PMC8671470:

What was measured:
Conditions in all cases: 72 h
KG-1 = experiment: cell viability (% survival relative to DMSO control, bortezomib = 0%); higher = less cytotoxic
Summary of the method: (§1)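 In 384-well plates pre-printed with compounds at 1, 10, 100, 1000 or 10000 nM, duplicate wells received cells from 10 AML and 5 CML lines at densities within the linear growth range. The plates stayed at 37 °C with 5% CO2 for 72 h before CellTiter-Glo luminescence was recorded. Each entry is averaged percent survival. Scaling placed vehicle at 100% and a 10 µM positive control at 0%.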

THP-1 = experiment: as above
Summary of the method: as §1

BV-173 = experiment: as above
Summary of the method: as §1

LAMA-84 = experiment: as above
Summary of the method: as §1

Mono-Mac-6 = experiment: as above
Summary of the method: as §1

NOMO-1 = experiment: as above
Summary of the method: as §1

K-562 = experiment: as above
Summary of the method: as §1

SHI-1 = experiment: as above
Summary of the method: as §1

ML-2 = experiment: as above
Summary of the method: as §1

MV4-11 [1] = experiment: as above
Summary of the method: as §1

HL-60 [2] = experiment: as above
Summary of the method: as §1

HEL = experiment: as above
Summary of the method: as §1

KU-812 = experiment: as above
Summary of the method: as §1

KCL-22 = experiment: as above
Summary of the method: as §1

MOLM-13 = experiment: as above
Summary of the method: as §1

HL-60 [3] = experiment: cell viability (% survival relative to DMSO control); higher = less cytotoxic
Summary of the method: (§2)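 In 384-well plates, the full library was rescreened in duplicate on HL-60 cells in RPMI 1640 with 10% FBS, at 1–10,000 nM in five tenfold concentrations, for 72 h at 37 °C, 5% CO2. Each run also held DMSO or 100 nM of one of three metabolic inhibitors. Viability was measured by CellTiter-Glo and normalised to DMSO wells and to wells with proteasome inhibitor, present at 10 μM. Any area under the curve comes from four-parameter log-logistic fitting with drc and PharmacoGx.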

MV4-11 [4] = system: MV4-11
Summary of the method: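 Dose–response data were fitted with a four-parameter log-logistic model. They came from fifteen myeloid leukaemia lines treated in duplicate with five tenfold doses from 1 to 10,000 nM for 72 h at 37 °C with 5% CO2, with ATP viability normalised to vehicle and to a positive control at 10 µM. The IC50 was derived from these fits.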

HL-60 [5] = experiment: area under dose-response curve (viability, 1 nM-10 uM) (fraction (0-1)); higher = more sensitive
Summary of the method: as §2

O=C(NCCCCCCNC(=O)ONC1=CCCCC1)ONC1=CCCCC1
Conditions	area under dose-response curve, co-treatment: AZD3965 100 nM	area under dose-response curve, co-treatment: DMSO vehicle	area under dose-response curve, co-treatment: GSK2194069 100 nM	area under dose-response curve, co-treatment: pictilisib 100 nM	cell viability, 1 nM [%]	cell viability, 10 nM [%]	cell viability, 100 nM [%]	cell viability, 1000 nM [%]	cell viability, 10000 nM [%]
BV-173	–	–	–	–	89.4	107	114	110	95.2
HEL	–	–	–	–	90.8	104	117	113	90.9
HL-60 [2]	–	–	–	–	106	107	124	111	93.8
HL-60 [5]	< 0.0301	< 0.0301	< 0.0301	< 0.0301	–	–	–	–	–
K-562	–	–	–	–	97.9	120	116	101	89.5
KCL-22	–	–	–	–	106	100	115	102	94.6
KG-1	–	–	–	–	90.4	122	114	92.8	90.4
KU-812	–	–	–	–	104	110	113	101	92.4
LAMA-84	–	–	–	–	104	103	112	101	103
ML-2	–	–	–	–	94.8	107	108	107	99.1
MOLM-13	–	–	–	–	118	97	109	98.7	86
MV4-11 [1]	–	–	–	–	91.1	104	106	100	96.3
Mono-Mac-6	–	–	–	–	90.6	110	103	98.8	102
NOMO-1	–	–	–	–	98.9	117	112	112	102
SHI-1	–	–	–	–	98.7	103	112	112	97.3
THP-1	–	–	–	–	89.4	114	109	97.4	100

cell viability [%], HL-60 [3]
Conditions	0.001 µM	0.01 µM	0.1 µM	1 µM	10 µM
co-treatment: AZD3965 100 nM	99.5	99	99.3	100.9	98.9
co-treatment: DMSO vehicle	97	99.2	96.8	102	97.3
co-treatment: GSK2194069 100 nM	99.1	101	70.1	87.3	105
co-treatment: pictilisib 100 nM	105	102	104	95	86.2

Conditions	IC50 (cell viability) [µM]
MV4-11 [4]	> 10

O=C(O)C(=O)CBr [3-bromopyruvic acid]
Conditions	area under dose-response curve, co-treatment: AZD3965 100 nM	area under dose-response curve, co-treatment: DMSO vehicle	area under dose-response curve, co-treatment: GSK2194069 100 nM	area under dose-response curve, co-treatment: pictilisib 100 nM	cell viability, 1 nM [%]	cell viability, 10 nM [%]	cell viability, 100 nM [%]	cell viability, 1000 nM [%]	cell viability, 10000 nM [%]
BV-173	–	–	–	–	107	85.9	99	91.7	99.7
HEL	–	–	–	–	90	83.1	92.2	96.2	112
HL-60 [2]	–	–	–	–	89.4	109	103	87.3	167
HL-60 [5]	< 0.0301	< 0.0301	< 0.0301	< 0.0301	–	–	–	–	–
K-562	–	–	–	–	91.3	97.6	92.3	103	106
KCL-22	–	–	–	–	99.6	75.3	91.7	93.1	106
KG-1	–	–	–	–	94.9	93.3	111	96	106
KU-812	–	–	–	–	88	88.9	99.8	97.6	105
LAMA-84	–	–	–	–	90.8	101	99.5	99.4	98
ML-2	–	–	–	–	91	78.4	102	102	99.4
MOLM-13	–	–	–	–	95	97.4	89.2	93.8	122
MV4-11 [1]	–	–	–	–	93.7	94.7	88.4	101	99.8
Mono-Mac-6	–	–	–	–	96.3	93	93.2	105	94.3
NOMO-1	–	–	–	–	93.3	95	101	98.1	98
SHI-1	–	–	–	–	98.8	98.3	117	99.6	110
THP-1	–	–	–	–	106	85	105	93.4	107

cell viability [%], HL-60 [3]
Conditions	0.001 µM	0.01 µM	0.1 µM	1 µM	10 µM
co-treatment: AZD3965 100 nM	99.1	101	99.2	98.3	95.8
co-treatment: DMSO vehicle	99.1	99.308	97.7	99.6	98
co-treatment: GSK2194069 100 nM	97.451	96.2	98.9	103	98.5
co-treatment: pictilisib 100 nM	112	93.8	92.943	97.2	96.5

Conditions	IC50 (cell viability) [µM]
MV4-11 [4]	> 10

Nc1ccccc1C(=O)C[C@H](N)C(=O)O [L-Kynurenine]
Conditions	area under dose-response curve, co-treatment: AZD3965 100 nM	area under dose-response curve, co-treatment: DMSO vehicle	area under dose-response curve, co-treatment: GSK2194069 100 nM	area under dose-response curve, co-treatment: pictilisib 100 nM	cell viability, 1 nM [%]	cell viability, 10 nM [%]	cell viability, 100 nM [%]	cell viability, 1000 nM [%]	cell viability, 10000 nM [%]
BV-173	–	–	–	–	108	90.1	101	107	102
HEL	–	–	–	–	117	80.1	102	104	92.7
HL-60 [2]	–	–	–	–	122	100	111	105	109
HL-60 [5]	< 0.0301	< 0.0301	< 0.0301	< 0.0301	–	–	–	–	–
K-562	–	–	–	–	104	125	93.3	101	110
KCL-22	–	–	–	–	104	–	96.6	103	97.3
KG-1	–	–	–	–	103	89.4	92.8	102	96.7
KU-812	–	–	–	–	98.8	90.5	99.5	106	99.2
LAMA-84	–	–	–	–	105	105	100	107	107
ML-2	–	–	–	–	107	103	103	100	98.7
MOLM-13	–	–	–	–	86.5	93.2	100	97.7	66.1
MV4-11 [1]	–	–	–	–	108	103	93.1	101	89.4
Mono-Mac-6	–	–	–	–	101	91.7	102	93.8	95.9
NOMO-1	–	–	–	–	102	96.3	99	117	101
SHI-1	–	–	–	–	120	102	90.6	104	98.4
THP-1	–	–	–	–	97	93.1	101	102	102

cell viability [%], HL-60 [3]
Conditions	0.001 µM	0.01 µM	0.1 µM	1 µM	10 µM
co-treatment: AZD3965 100 nM	93.4	77.9	104	99.66	104
co-treatment: DMSO vehicle	92.2	96.4	100.5	99	106.8
co-treatment: GSK2194069 100 nM	96.6	94.9	101	98.86	100
co-treatment: pictilisib 100 nM	88.1	95.5	103	94.5	105

Conditions	IC50 (cell viability) [µM]
MV4-11 [4]	> 10

Cc1coc2c1C(=O)C(=O)c1c-2ccc2c1CCCC2(C)C [Tanshinone IIA]
Conditions	area under dose-response curve, co-treatment: AZD3965 100 nM	area under dose-response curve, co-treatment: DMSO vehicle	area under dose-response curve, co-treatment: GSK2194069 100 nM	area under dose-response curve, co-treatment: pictilisib 100 nM	cell viability, 1 nM [%]	cell viability, 10 nM [%]	cell viability, 100 nM [%]	cell viability, 1000 nM [%]	cell viability, 10000 nM [%]
BV-173	–	–	–	–	91.9	103	105	97.3	87.7
HEL	–	–	–	–	91	100	107	111	97.9
HL-60 [2]	–	–	–	–	113	96.6	95.1	98.7	79.3
HL-60 [5]	< 0.0301	< 0.0301	< 0.0301	< 0.0301	–	–	–	–	–
K-562	–	–	–	–	98.1	104	104	109	81.3
KCL-22	–	–	–	–	114	98.8	107	105	59.9
KG-1	–	–	–	–	106	97.7	94.8	102	76.6
KU-812	–	–	–	–	89.8	95.2	93.1	106	86.2
LAMA-84	–	–	–	–	102	97.7	98.5	99.6	102
ML-2	–	–	–	–	106	111	103	101	77.6
MOLM-13	–	–	–	–	87.8	90.9	106	101	89.6
MV4-11 [1]	–	–	–	–	91.9	100	93.1	101	80.3
Mono-Mac-6	–	–	–	–	90.9	99	102	91.1	87.7
NOMO-1	–	–	–	–	103	104	102	102	91.9
SHI-1	–	–	–	–	106	98.5	98.8	107	96.1
THP-1	–	–	–	–	98.4	110	104	92.4	62.5

cell viability [%], HL-60 [3]
Conditions	0.001 µM	0.01 µM	0.1 µM	1 µM	10 µM
co-treatment: AZD3965 100 nM	106	106	104	101	103
co-treatment: DMSO vehicle	100.1	105	101	99.49	99
co-treatment: GSK2194069 100 nM	106.9	110.7	105	101.4	97.5
co-treatment: pictilisib 100 nM	95.5	111	107	109	109

Conditions	IC50 (cell viability) [µM]
MV4-11 [4]	> 10
